Tests used:
[1] = molecular target: T1, Prostaglandin G/H synthase 1 (Homo sapiens, UniProt P23219); format: microsomes
Description: Inhibitory concentration was measured against Prostaglandin G/H synthase 1 in the sensitive U937 microsome assay

[2] = molecular target: T2, Prostaglandin G/H synthase 2 (Homo sapiens, UniProt P35354)
T2 sequence (P35354 whole entry): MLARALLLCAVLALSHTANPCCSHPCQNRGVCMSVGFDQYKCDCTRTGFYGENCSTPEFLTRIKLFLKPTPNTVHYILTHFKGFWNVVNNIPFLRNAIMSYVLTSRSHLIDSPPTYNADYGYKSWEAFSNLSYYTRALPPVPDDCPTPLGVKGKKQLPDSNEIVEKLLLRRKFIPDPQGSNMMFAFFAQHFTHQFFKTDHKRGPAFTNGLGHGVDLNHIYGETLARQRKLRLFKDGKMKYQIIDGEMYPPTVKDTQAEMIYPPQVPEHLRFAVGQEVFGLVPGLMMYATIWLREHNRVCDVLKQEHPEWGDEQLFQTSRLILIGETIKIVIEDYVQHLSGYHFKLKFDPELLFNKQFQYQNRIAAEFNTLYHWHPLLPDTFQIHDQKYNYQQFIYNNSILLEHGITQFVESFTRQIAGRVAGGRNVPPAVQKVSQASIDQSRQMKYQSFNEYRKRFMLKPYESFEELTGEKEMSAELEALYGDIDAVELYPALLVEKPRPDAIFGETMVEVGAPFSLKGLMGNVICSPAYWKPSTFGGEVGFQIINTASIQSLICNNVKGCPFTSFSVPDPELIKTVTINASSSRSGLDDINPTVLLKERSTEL
Description: Inhibitory concentration was measured against Prostaglandin G/H synthase 2 in human whole blood

[3] = molecular target: T2, Prostaglandin G/H synthase 2; remark: listed apart in the source
[4] = test system: Rattus norvegicus; assay: Inhibition of carrageenan induced rat paw oedema.; format: functional
[5] = molecular target: T1, Prostaglandin G/H synthase 1; format: tissue-based, Blood
Description: Inhibitory concentration was measured against Prostaglandin G/H synthase 1 in human whole blood

[6] = molecular target: T2, Prostaglandin G/H synthase 2; assay: Inhibitory concentration was measured against Cyclooxygenase-2 in human whole blood; format: tissue-based
[7] = Oral bioavailability in rat; format: ADME, organism-based; conditions: in vivo
[8] = Clearance rate following an oral dose of 20 mg/kg in rats; format: ADME, organism-based; parameters: dose 20 mg/kg, route oral; conditions: rat, in vivo, read-out: Clearance
[9] = Peak plasma concentration (Cmax) following an oral dose of […] mg/kg in rats; format: ADME, organism-based; conditions: rat, 20 mg/kg
[10] = molecular target: T1, Prostaglandin G/H synthase 1; assay: Inhibitory concentration was measured […] the sensitive U937 microsome assay; format: microsomes
[11] = species: Rattus norvegicus; assay: Effective concentration to reduce pyrexia was determined in rats; format: functional
[12] = species: Rattus norvegicus; assay: Inhibitory dose to produce analgesia was determined in rats; format: functional; conditions: read-out: ID50 (the source's name)
[13] = species: Rattus norvegicus; assay: Inhibitory dose to reduce arthritis was determined in rats; format: functional; conditions: read-out: ID50 (the source's name)
[14] = Aqueous solubility was determined; format: physicochemical

T1 sequence (P23219 whole entry): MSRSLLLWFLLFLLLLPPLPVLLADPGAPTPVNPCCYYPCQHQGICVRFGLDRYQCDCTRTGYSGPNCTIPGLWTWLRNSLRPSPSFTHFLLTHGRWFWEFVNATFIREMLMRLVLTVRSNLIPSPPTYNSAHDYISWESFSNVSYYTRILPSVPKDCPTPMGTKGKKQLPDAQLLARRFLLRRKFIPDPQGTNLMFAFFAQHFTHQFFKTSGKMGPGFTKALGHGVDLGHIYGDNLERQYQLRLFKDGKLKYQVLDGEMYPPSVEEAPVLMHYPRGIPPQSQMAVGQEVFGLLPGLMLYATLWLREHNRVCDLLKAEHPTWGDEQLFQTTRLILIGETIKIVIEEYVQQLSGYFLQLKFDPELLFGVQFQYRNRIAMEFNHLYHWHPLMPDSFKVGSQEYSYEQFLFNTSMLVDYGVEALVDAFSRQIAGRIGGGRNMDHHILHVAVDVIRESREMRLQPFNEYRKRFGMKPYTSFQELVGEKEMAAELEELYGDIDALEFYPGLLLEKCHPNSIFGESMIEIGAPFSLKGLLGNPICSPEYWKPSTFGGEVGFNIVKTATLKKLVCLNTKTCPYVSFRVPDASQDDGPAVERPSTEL

| IC50 [1] [µM] | IC50 [2] [µM] | IC50 [3] [nM] | SMILES | ED50 [4] [mg/kg] | other results |
| --- | --- | --- | --- | --- | --- |
| > 10 | > 33 | > 5000 | CC1(O)OC(=O)C(c2ccc(O)cc2)=C1c1ccc(S(C)(=O)=O)cc1 (configuration not stated) | – | – |
| – | – | – | CS(=O)(=O)c1ccc(C2=C(c3ccccc3)C(=O)OC2)cc1 [ROFECOXIB] | 1.5 | – |
| 10 | 0.5 | – | CCOC1(C)OC(=O)C(c2ccc(F)cc2)=C1c1ccc(S(C)(=O)=O)cc1 (configuration not stated) | – | – |
| > 10 | > 33 | > 5000 | CC1(O)OC(=O)C(Oc2ccc(F)c(F)c2)=C1c1ccc(S(C)(=O)=O)cc1 (configuration not stated) | – | – |
| > 300 | 6.3 | 200 | CC1(O)OC(=O)C(c2ccc(F)c(F)c2)=C1c1ccc(S(C)(=O)=O)cc1 (configuration not stated) | > 10 | – |
| > 100 | 12.8 | 250 | CC1(O)OC(=O)C(c2cccc(F)c2)=C1c1ccc(S(C)(=O)=O)cc1 (configuration not stated) | > 10 | – |
| 3 | 0.8 | – | CC(C)OC1(C)OC(=O)C(c2ccc(F)cc2)=C1c1ccc(S(C)(=O)=O)cc1 (configuration not stated) | – | – |
| > 100 | 7.5 | 1200 | CC1(O)OC(=O)C(c2ccc(Cl)cc2Cl)=C1c1ccc(S(C)(=O)=O)cc1 (configuration not stated) | – | – |
| > 100 | – | – | CC1(O)OC(=O)C(c2cc3ccccc3s2)=C1c1ccc(S(C)(=O)=O)cc1 (configuration not stated) | – | – |
| 101 | 1.7 | 140 | CC1(O)OC(=O)C(c2ccc(Br)cc2)=C1c1ccc(S(C)(=O)=O)cc1 (configuration not stated) | 1.6 | IC50 [5]: > 100 µM |
| 14 | – | 69 | COC1(C)OC(=O)C(c2ccc(F)cc2)=C1c1ccc(S(C)(=O)=O)cc1 (configuration not stated) | 2.8 | IC50 [5]: 57 µM; IC50 [6]: 100 nM |
| 7 | 1.7 | 310 | CSc1ccc(C2=C(c3ccc(S(C)(=O)=O)cc3)C(C)(O)OC2=O)cc1 (configuration not stated) | – | IC50 [5]: 38 µM |
| – | – | – | Cc1ccc(-c2cc(C(F)(F)F)nn2-c2ccc(S(N)(=O)=O)cc2)cc1 [CELECOXIB] | 3.2 | – |
| > 10 | 0.4 | 320 | CC1(OCC(F)(F)F)OC(=O)C(c2ccc(F)cc2)=C1c1ccc(S(C)(=O)=O)cc1 (configuration not stated) | 6.4 | bioavailability [7]: 35% |
| > 100 | 13.4 | 550 | CC1(O)OC(=O)C(c2cc(F)cc(F)c2)=C1c1ccc(S(C)(=O)=O)cc1 (configuration not stated) | – | IC50 [5]: > 90 µM |
| 81 | 2.2 | 110 | CC1(O)OC(=O)C(c2ccc(F)c(Cl)c2)=C1c1ccc(S(C)(=O)=O)cc1 (configuration not stated) | – | – |
| > 100 | > 33 | 1900 | CC1(O)OC(=O)C(c2cccs2)=C1c1ccc(S(C)(=O)=O)cc1 (configuration not stated) | – | – |
| – | – | 380 | CC1(O)OC(=O)C(c2ccc(F)cc2)=C1c1ccc(S(C)(=O)=O)cc1 (configuration not stated) | 1.8 | CL/F [8]: 2.6 mL/min; Cmax [9]: 60 µM; IC50 [10]: > 100 µM; IC50 [6]: 1800 nM |
| – | – | – | CC(=O)/C(=C(\C(=O)[O-])c1ccc(Cl)cc1)c1ccc(S(C)(=O)=O)cc1.[Na+] | 1.8 | ED50 [11]: 0.7 mg/kg; ED50 [12]: 0.8 mg/kg; ED50 [13]: 0.6 mg/kg; solubility [14]: > 100 mg/mL |
| 105 | – | 110 | CC1(O)OC(=O)C(c2ccc(Cl)cc2)=C1c1ccc(S(C)(=O)=O)cc1 (configuration not stated) | 1.4 | – |
| 35 | 0.85 | 70 | CC1(O)OC(=O)C(c2ccc(Cl)c(Cl)c2)=C1c1ccc(S(C)(=O)=O)cc1 (configuration not stated) | 1.9 | IC50 [5]: 75 µM |
| > 300 | 4.3 | 410 | CC(C)c1ccc(C2=C(c3ccc(S(C)(=O)=O)cc3)C(C)(O)OC2=O)cc1 (configuration not stated) | – | IC50 [5]: > 100 µM |
| > 100 | 24 | 110 | CC1(O)OC(=O)C(c2ccsc2)=C1c1ccc(S(C)(=O)=O)cc1 (configuration not stated) | – | – |
| > 10 | > 10 | > 5000 | CC1(O)OC(=O)C(Sc2ccccc2)=C1c1ccc(S(C)(=O)=O)cc1 (configuration not stated) | – | – |
| > 100 | 1.2 | 160 | CC1(O)OC(=O)C(c2ccccc2)=C1c1ccc(S(C)(=O)=O)cc1 (configuration not stated) | 1.5 | IC50 [5]: > 90 µM |
| – | – | – | CC(=O)/C(=C(\C(=O)[O-])c1ccccc1)c1ccc(S(C)(=O)=O)cc1.[Na+] | – | solubility [14]: > 100 mg/mL |

| SMILES | IC50 [1] [µM] | IC50 [2] [µM] | IC50 [3] [nM] | ED50 [4] [mg/kg] | other results |
| --- | --- | --- | --- | --- | --- |
| CC1(O)OC(=O)C(c2ccc3ccccc3c2)=C1c1ccc(S(C)(=O)=O)cc1 (configuration not stated) | 30 | 3.2 | 450 | > 10 | – |

Reference: ChEMBL document CHEMBL1136665 (Bioorg Med Chem Lett, 2003)
